Measured values as given in publication PMC4486940, “Redox Linked Flavin Sites in Extracellular Decaheme Proteins Involved in Microbe-Mineral Electron Transfer” (Scientific Reports, 2015).

Assays:
Format in all cases: binding
MtrF = molecular target: T1, MtrF (Shewanella oneidensis, UniProt Q8EG32); experiment: PD10 gel-filtration co-elution, flavin fluorescence ([…] nm); conditions: anaerobic, 1 mM reduced glutathione (disulfide reduced), 10 uM FMN, 20 mM HEPES pH 7.6, room temperature
T1 construct: detergent-solubilised form, isolated as in earlier work
T1 sequence (Q8EG32 24-639): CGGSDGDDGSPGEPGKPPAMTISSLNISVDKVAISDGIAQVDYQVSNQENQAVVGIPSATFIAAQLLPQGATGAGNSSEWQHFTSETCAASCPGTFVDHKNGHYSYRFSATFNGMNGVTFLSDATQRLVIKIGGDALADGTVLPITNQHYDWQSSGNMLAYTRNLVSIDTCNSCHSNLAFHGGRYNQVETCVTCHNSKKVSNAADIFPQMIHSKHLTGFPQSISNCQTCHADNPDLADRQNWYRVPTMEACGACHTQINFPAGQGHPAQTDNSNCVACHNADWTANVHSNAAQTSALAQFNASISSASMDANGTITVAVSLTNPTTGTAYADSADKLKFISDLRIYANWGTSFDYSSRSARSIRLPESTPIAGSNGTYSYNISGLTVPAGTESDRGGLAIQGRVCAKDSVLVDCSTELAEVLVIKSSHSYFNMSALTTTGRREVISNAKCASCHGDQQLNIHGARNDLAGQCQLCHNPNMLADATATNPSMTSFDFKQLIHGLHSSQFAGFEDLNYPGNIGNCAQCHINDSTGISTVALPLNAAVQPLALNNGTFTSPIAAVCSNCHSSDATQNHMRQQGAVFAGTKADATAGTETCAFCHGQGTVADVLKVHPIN

MtrC [1] = molecular target: T2, MtrC (Shewanella oneidensis, UniProt Q8EG34); experiment: PD10 gel-filtration co-elution, flavin fluorescence and absorbance; fluorescence quenching; conditions: anaerobic, 1 mM reduced glutathione (disulfide reduced), 1 uM MtrC, 10 uM FMN, 20 mM HEPES pH 7.6, room temperature
T2 construct: soluble; pLS146 in S. oneidensis LS329; model residues 45-670
T2 sequence (Q8EG34 26-671): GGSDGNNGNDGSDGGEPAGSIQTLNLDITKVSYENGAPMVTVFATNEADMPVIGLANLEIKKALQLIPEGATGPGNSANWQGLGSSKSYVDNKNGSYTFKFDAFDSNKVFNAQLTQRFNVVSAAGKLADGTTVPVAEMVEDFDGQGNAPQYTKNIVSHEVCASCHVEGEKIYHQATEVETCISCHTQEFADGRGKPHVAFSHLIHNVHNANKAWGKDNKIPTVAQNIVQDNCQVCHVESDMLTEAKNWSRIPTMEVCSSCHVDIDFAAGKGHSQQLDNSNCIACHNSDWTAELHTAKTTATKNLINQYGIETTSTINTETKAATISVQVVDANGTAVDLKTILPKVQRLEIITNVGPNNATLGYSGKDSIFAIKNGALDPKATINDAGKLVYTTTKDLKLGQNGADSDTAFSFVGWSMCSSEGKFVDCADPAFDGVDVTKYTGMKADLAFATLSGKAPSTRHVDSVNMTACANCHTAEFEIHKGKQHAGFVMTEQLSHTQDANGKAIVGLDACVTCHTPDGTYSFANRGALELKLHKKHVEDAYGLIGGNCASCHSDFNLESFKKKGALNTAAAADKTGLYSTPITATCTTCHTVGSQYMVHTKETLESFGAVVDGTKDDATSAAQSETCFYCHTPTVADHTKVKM

UndA = molecular target: T3, UndA (Shewanella sp. HRCR_06, UniProt F8UWD6); experiment: PD10 gel-filtration co-elution, flavin fluorescence ([…] nm); conditions: anaerobic, 1 mM reduced glutathione (disulfide reduced), 10 uM FMN, 20 mM HEPES pH 7.6, room temperature
T3 construct: soluble form, isolated as in earlier work
T3 sequence (F8UWD6 27-843): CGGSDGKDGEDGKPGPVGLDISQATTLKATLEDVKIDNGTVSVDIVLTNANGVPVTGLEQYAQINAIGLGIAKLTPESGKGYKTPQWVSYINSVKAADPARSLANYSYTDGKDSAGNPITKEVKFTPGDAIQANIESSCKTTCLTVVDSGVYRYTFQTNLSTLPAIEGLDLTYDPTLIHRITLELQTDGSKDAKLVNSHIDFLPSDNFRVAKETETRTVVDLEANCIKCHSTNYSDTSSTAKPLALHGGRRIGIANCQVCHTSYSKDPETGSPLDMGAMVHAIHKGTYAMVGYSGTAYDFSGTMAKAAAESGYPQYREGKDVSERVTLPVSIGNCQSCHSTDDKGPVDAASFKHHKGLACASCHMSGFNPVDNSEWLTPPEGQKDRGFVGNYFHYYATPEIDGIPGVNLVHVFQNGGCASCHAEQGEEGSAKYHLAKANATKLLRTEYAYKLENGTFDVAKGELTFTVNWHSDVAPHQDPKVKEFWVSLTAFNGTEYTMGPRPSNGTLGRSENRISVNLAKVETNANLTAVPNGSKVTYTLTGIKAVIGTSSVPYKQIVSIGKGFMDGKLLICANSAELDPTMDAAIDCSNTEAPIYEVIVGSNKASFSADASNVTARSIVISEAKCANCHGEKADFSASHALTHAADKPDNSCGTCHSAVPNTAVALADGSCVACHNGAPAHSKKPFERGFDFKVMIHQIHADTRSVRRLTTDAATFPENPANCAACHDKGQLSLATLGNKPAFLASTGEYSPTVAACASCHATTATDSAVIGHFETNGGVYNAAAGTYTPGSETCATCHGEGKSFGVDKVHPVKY

OmcA = molecular target: T4, OmcA (Shewanella oneidensis, UniProt Q8EG33); experiment: PD10 gel-filtration co-elution, flavin fluorescence and absorbance; conditions: anaerobic, 1 mM reduced glutathione (disulfide reduced), 10 uM FMN, 20 mM HEPES pH 7.6, room temperature
T4 construct: soluble form, isolated as in earlier work
T4 sequence (Q8EG33 28-735): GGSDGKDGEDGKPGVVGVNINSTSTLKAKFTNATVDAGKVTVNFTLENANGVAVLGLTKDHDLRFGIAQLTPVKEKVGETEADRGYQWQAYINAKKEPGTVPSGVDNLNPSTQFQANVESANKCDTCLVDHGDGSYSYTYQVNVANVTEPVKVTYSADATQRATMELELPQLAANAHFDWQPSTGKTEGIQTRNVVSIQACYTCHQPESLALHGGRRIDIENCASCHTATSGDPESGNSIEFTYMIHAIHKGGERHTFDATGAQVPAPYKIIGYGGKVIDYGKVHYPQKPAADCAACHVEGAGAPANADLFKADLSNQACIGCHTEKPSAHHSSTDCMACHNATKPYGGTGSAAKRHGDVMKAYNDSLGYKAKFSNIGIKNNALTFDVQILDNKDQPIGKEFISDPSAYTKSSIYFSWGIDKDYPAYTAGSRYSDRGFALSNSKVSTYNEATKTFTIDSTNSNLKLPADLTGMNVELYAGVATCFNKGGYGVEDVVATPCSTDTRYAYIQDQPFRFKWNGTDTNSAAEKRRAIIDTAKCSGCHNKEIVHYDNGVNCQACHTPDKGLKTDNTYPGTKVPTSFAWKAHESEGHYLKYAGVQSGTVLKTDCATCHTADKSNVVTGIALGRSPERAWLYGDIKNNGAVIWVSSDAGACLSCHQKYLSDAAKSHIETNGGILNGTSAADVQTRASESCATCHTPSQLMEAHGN

MtrC [2] = molecular target: T2, MtrC; experiment: PD10 gel-filtration co-elution, spectroscopy; conditions: anaerobic, reduced glutathione (disulfide reduced), 20 mM HEPES pH 7.6, room temperature

SMILES	PD10 gel-filtration co-elution, flavin fluorescence (525 nm) (MtrF)	PD10 gel-filtration co-elution, flavin fluorescence and absorbance; fluorescence (MtrC [1])	PD10 gel-filtration co-elution, flavin fluorescence (525 nm) (UndA)	PD10 gel-filtration co-elution, flavin fluorescence and absorbance (OmcA)	PD10 gel-filtration co-elution, spectroscopy (MtrC [2])
Cc1cc2nc3c(=O)[nH]c(=O)nc-3n(C[C@H](O)[C@H](O)[C@H](O)COP(=O)(O)O)c2cc1C [FMN]	OMMC-FMN interactions were also observed after incubation of MtrF or UndA with FMN	FMN associated specifically with MtrC in the presence of glutathione	OMMC-FMN interactions were also observed after incubation of MtrF or UndA with FMN	Co-elution of FMN and OmcA was observed in the presence, but not the absence, of glutathione	–
Cc1cc2nc3c(=O)[nH]c(=O)nc-3n(C[C@H](O)[C@H](O)[C@H](O)CO)c2cc1C [riboflavin]	–	–	–	–	MtrC was also capable of tightly binding a single molecule of riboflavin
